By IC50 is commonly meant the point on the concentration scale where inhibition reaches its midpoint. Higher therefore signals a need for much substance. The term Ki denotes the equilibrium dissociation constant of an inhibitor or competing ligand from its target.

Structures are written as SMILES.

In data set [1] the test system is U87-MG. Further details: method as in PMID 26149830. Conditions: orthotopic U87-MG GBM rat xenografts; cited from earlier work.
The next data set deals with MHCC97L. In words: Cell proliferation assay. The format is cell-based. Conditions: Homo sapiens, liver, hepatocellular carcinoma, 72 hours.
The next data set concerns the target T1, CDK4–cyclin D1 (Homo sapiens, UniProt P11802).
T1 construct: purchased Invitrogen
Description: LANCE Ultra TR-FRET enzymatic profiling assay. The format is biochemical. How it is done: Results were calculated as half-maximal inhibitory concentration (IC50) and inhibition constant (K i). IC50 and K i values were determined using the XLfit 205 model (ID Business Solutions Ltd, Guildford, UK) curve-fitting add-on for Microsoft Excel (Microsoft Corporation, Redmond, WA, USA).

Data set [2] concerns breast cancer resistance protein (BCRP). Conditions: cited from earlier work.
The next data set concerns BRL. In words: Cell proliferation assay. The format is cell-based, Rattus norvegicus. As to conditions: liver, normal, 72 hours. How it is done: To quantify cell proliferation, either the nuclei of live cells were counted following staining with 4’,6-diamidino-2-phenylindole (DAPI; Sigma-Aldrich, Burlington, MA, USA), or metabolically active cells were detected using a CellTiter-Glo assay (Promega Corporation, Madison, WI, USA). Cells from a range of human and mammalian tumor cell lines (American Type Culture Collection, Manassas, VA, USA) were seeded at 4000 cells per well in 100 μL of culture medium in a 96-well plate and incubated overnight at 37°C with 5% CO2. […] In the DAPI staining method, cells were washed using 1× phosphate-buffered saline (PBS; Gibco Thermo Fisher Scientific, Waltham, MA, USA), fixed with 4% formaldehyde, permeabilized with 0.2% Triton X-100 (Sigma-Aldrich), washed again, and stained with 1 μg/mL DAPI to visualize cell nuclei. Cells were washed with 1× PBS three times, and 100 μL 1× PBS was added to each well. Plates were scanned using an IN Cell Analyzer 2200 (GE Healthcare Life Sciences, Chicago, IL, USA) and the number of cells per well was recorded. In the CellTiter-Glo assay, 60 μL of CellTiter-Glo luminescent solution was added to each well after incubation with the test compounds, and the assay plate was scanned using a Tecan Infinite M1000 PRO microplate reader (Tecan Group AG, Männedorf, Switzerland) to record luminescent signals.

The target in the next data set is T2, CDK6–cyclin D1 (Homo sapiens, UniProt Q00534).
T2 construct: purchased Invitrogen
T2 sequence (Q00534 whole entry): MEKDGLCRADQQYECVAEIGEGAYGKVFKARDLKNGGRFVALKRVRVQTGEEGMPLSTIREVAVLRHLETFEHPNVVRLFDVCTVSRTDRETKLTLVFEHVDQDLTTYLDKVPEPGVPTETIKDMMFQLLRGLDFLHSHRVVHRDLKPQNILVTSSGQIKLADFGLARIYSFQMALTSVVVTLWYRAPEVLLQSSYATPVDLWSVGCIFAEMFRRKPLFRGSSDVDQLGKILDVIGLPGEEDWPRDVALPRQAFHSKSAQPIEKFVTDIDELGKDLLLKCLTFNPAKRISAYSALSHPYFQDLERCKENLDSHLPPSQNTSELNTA
T2 sequence (P24385 whole entry partner): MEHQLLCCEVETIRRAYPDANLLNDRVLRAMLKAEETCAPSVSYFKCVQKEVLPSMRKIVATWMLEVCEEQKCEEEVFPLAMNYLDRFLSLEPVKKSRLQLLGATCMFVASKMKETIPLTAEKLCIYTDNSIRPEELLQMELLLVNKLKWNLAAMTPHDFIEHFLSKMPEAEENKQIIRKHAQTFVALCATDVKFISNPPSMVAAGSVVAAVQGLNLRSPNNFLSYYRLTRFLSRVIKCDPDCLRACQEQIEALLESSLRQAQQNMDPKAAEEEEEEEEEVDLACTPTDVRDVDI
Description: LANCE Ultra TR-FRET enzymatic profiling assay. The format is biochemical. As for the experimental part: Results were calculated as half-maximal inhibitory concentration (IC50) and inhibition constant (K i).
A general note: TR-FRET usually uses a lanthanide donor and a delayed reading to cut background.

A short description of data set [3]: Excretion of radioactivity in bile duct cannulated (BDC) rats. The format is in vivo, Sprague Dawley rats. How it is done:
(§1) To investigate the degree to which GLR2007 penetrated organs and tissues, and the levels of excretion of the compound, rats were dosed with radiolabeled GLR2007 and whole-body autoradiography was performed. Sprague Dawley rats (Vital River Laboratory Animal Technology Co., Beijing, China; N=38, female n=19; 8–11 weeks old) were maintained in humidity- and temperature-controlled conditions on a 12-hour light/dark cycle, with food (certified rat diet; Jiangsu Xietong Pharmaceutical Biological Engineering Co., Ltd, Jiangsu, China) and water available ad libitum. […] Urine, feces, and cage rinse/wash up to 168 hours after treatment were collected from six intact rats (three male, three female); bile, urine, feces, and cage rinse/wash up to 72 hours after treatment were collected from eight bile duct cannulated (BDC) rats (four male, four female). Heart, lung, liver, spleen, kidneys, whole brain, stomach tract wall, intestinal tract wall, skeletal muscle, body fat, reproductive organs (uterus and ovary for female rats, testis and epididymis for male rats) were collected at 2, 6, 24, and 72 hours after treatment (three male, three female per time point). The total radioactivity (TRA) of plasma, bile, urine, and cage rinse/wash samples was directly analyzed by liquid scintillation counting. Fecal and tissue homogenates and blood were combusted using a PerkinElmer Oxidizer (PerkinElmer Inc.), and the generated [^14C]CO2 was captured in ^14C scintillation cocktail (Shimadzu Corporation, Kyoto, Japan), followed by analysis using a PerkinElmer Liquid Scintillation Counter (PerkinElmer Inc.). The TRA levels determined in bile, urine, feces, and cage rinse/wash were used to calculate the percentage of the administered dose excreted. Mean TRA values of whole brain and plasma at 2, 6, 24, and 72 hours were used to calculate the area under concentration–time curve from time zero to 72 hours (AUC0–72), using a noncompartmental model in Phoenix WinNonlin v6.3 software (Certara, Princeton, NJ, USA).

Data set [4] deals with U87-MG. As to conditions: cell line U87-MG; cited from earlier work.
The next data set deals with P-glycoprotein. Conditions: cited from earlier work.
A further data set has as its system Colo320DM. In words: Cell proliferation assay. As to conditions: colon carcinoma, 72 hours. The format is cell-based, Homo sapiens. The method in brief: (§2)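 Cells plated at 4000 per well; overnight incubation at 37°C, 5% CO2. Compound treatment followed. Cells then fixed (4% formaldehyde), permeabilized (0.2% Triton X-100) and stained with 1 μg/mL DAPI for imaging-based nuclear counts, or lysed with CellTiter-Glo reagent for luminescence.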

Another data set concerns PLC/PRF/5. In words: Cell proliferation assay. The format is cell-based, Homo sapiens. As to conditions: PLC/PRF/5, liver, hepatocellular carcinoma, 72 hours. In a few lines: as §2
Data set [5] is described as follows: Excretion of radioactivity in intact rats. The format is in vivo, Sprague Dawley rats. How it is done: as §1
For the next data set, the system named is NCI-H2228. In words: Subcutaneous NCI-H2228 non-small cell lung cancer xenograft. The format is in vivo, BALB/c nude mice. Conditions: 50 mg/kg daily oral, 28 days, measured day 34. As for the experimental part: The efficacy of GLR2007 was evaluated in human GBM and breast cancer orthotopic cell-line-derived xenografts in NOD/SCID mice (Shanghai Lingchang Biotechnology Co. Ltd, Shanghai, China) and BALB/c nude mice (Shanghai Sino-British SIPPR/BK Laboratory Animal Co. Ltd, Shanghai, China), and human lung, colorectal, and liver cancer subcutaneous cell-line-derived xenografts in BALB/c nude mice (Nanjing University National Resource Center, Nanjing, China, or Beijing Anikeeper Biotech Co., Beijing, China). Mice were maintained in humidity- and temperature-controlled conditions with food and water available ad libitum. For subcutaneous models, female BALB/c nude mice were inoculated at 4–8 weeks old with 3×10^6–1×10^7 tumor cells (see Table 1 for xenograft model cell types) in the right flank for tumor development. Randomization was performed when the mean tumor volume reached 118–171 mm^3.

T1 sequence (P11802 whole entry): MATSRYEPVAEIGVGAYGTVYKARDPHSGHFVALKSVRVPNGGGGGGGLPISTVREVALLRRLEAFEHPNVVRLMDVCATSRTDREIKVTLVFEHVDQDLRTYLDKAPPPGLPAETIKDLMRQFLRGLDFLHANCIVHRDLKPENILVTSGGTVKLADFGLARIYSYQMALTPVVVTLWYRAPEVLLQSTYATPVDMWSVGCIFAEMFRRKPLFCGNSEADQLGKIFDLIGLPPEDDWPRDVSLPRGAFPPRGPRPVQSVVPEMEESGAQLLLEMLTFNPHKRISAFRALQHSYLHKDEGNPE
T1 sequence (P24385 whole entry partner): as the sequence (P24385 whole entry partner) above

On to `CCN1CCN(Cc2ccc(Nc3ncc(F)c(-c4cc(F)c5nc(C)n(C(C)C)c5c4)n3)nc2)CC1` [Abemaciclib, abemaciclib, reference compound], for which the “Increase in survival time compared to vehicle control” value in the data set on U87-MG [1] is recorded as 37.4%. This molecule yielded an IC50 in the data set on MHCC97L of 236 nM.
For `CC1=Nc2c(F)cc(-c3nc(Nc4ccc(C5CCN(C)CC5)cn4)ncc3F)cc2C12CCCC2` [GLR2007], the figures for the Ki at CDK4–cyclin D1 (CDK4/CyD1) and at CDK6–cyclin D1 (CDK6/CyD1) were less than 0.1 nM and less than 0.08 nM, respectively. Also, the IC50 on CDK4–cyclin D1 (CDK4/CyD1, 11 concentrations in duplicates) came to 0.22 nM; with BRL, 2120 nM; against CDK6–cyclin D1 (CDK6/CyD1, 11 concentrations in duplicates), 0.53 nM; with Colo320DM it was 1140 nM; in the data set on PLC/PRF/5, 302 nM. In [2], the “Substrate of efflux transporter BCRP” value is recorded as “not a substrate”. Also, the “Dose recovered in bile” value in data set [3] (BDC rats, within 72 hours) worked out at 33.3%. Moreover, the Dose recovered in [3] (BDC rats, within 72 hours, single oral 6 mg/100 μCi/kg) is 84.2%; in data set [5] (within 168 hours, single oral 6 mg/100 μCi/kg), 95.5%; in data set [5] (within the first 48 hours) it was 74.3%. Moreover, in data set [3] (based on excretion in bile and urine from BDC rats), the “Dose predicted to be absorbed” value is “at least 42.4%”. In addition, the Cell cycle effect result in the data set with U87-MG [4] is “induce G1 arrest”. Besides, the “Substrate of efflux transporter P-glycoprotein” value in the data set on P-glycoprotein is recorded as “not a substrate”. Further, in data set [5] (single oral 6 mg/100 μCi/kg), the “Radioactivity excreted via feces” value is 84.10%. Further, in the data set with NCI-H2228, the “TGI (%)” value turned out to be 33.9%.

The record behind these values is paper PMC9403987 (Frontiers in Oncology, 2022).
